Data set [1] relates to SH‐SY5Y cells. The data set can be described thus: Cell viability after microinjection. How it is done: (§1) Cell survival measurements were described in detail in the experimental section. […] White arrows indicate apoptotic cells microinjected with peptide samples. […] Scale bar = 100 µm.
Experiments were performed at least in triplicate.

In a further data set the target is T1, Aβ40 (Homo sapiens, UniProt P05067).
T1 construct: purchased Peptide Institute, Inc. (Osaka, Japan) or Anaspec (Fremont, CA, USA)
Kind of data set: ITC, APP‐C31 binding to Aβ40. Conditions: read-out: binding affinity (Kd). Here is the method:
Titration experiments composed of 28 injections were conducted. The injection volume was 2 µL for the first injection to minimize effects of bubbles and 10 µL for the remaining injections. […] The initial delay was 1800 s and the reference power was 10 µcal s^−1. […] The binding isotherms after baseline correction were fitted to the one set of sites binding model incorporated in the MicroCal Origin 7.0 software.^[ [84] ^]
Figure S10. Interaction of Ab40 with APP-C31 monitored by ITC. The ITC thermogram (upper panel) and binding isotherm (lower panel) were obtained upon titration of APP-C31 into Ab40. The Kd value was calculated from three independent measurements. Conditions: [Ab40] = 30 µM; [APP-C31] = 600 µM; 20

For data set [2], the system named is human neurons differentiated from H9 human embryonic stem cells. The data set can be described thus: Neurite outgrowth in human neurons. In kind it is cell-based.
Procedure: Human neurons were differentiated from neural progenitor cells (NPCs), which are derived from human embryonic stem cells (hESCs), WA09 (also known as H9). hESCs were maintained on inactivated mouse embryonic fibroblasts (MEFs) in hESC‐media comprising DMEM/F12 (GIBCO) with MEM non‐essential amino acids (MEM NEAA; GIBCO), sodium bicarbonate (14 mM; Sigma‐Aldrich), L‐glutamine (1 mM; Sigma‐Aldrich), β‐mercaptoethanol (100 µM; Merck Millipore, Billerica, MA, USA), knockout serum replacement (20% v/v; GIBCO), and bFGF (10 ng mL^−1; R&D systems, McKinley Place, MN, USA). MEFs were collected from E13.5 CrljOri:CD1 (ICR) mice (Orientbio, Seongnam, Republic of Korea) and inactivated with 10 µg mL^−1 of mitomycin C (AG Scientific, San Diego, CA, USA) in 2 h. hESC colonies were dissociated with Collagenase IV and plated onto Petri dishes in hESC‐media to form embryoid bodies (EBs). […] The treatment was continued for a week, followed by plating onto growth factor reduced matrigel (BD biosciences)‐coated dishes in DMEM/F12 + glutamax (GIBCO) with N2 and B27 supplements (N2/B27 media) and laminin (1 mg mL^−1; GIBCO). […]
Human NPCs were differentiated into neurons for 2 d and the media was replaced by fresh media. […] The neurite of a neuron measured from the soma to the tip was analyzed using Neuron J program of Fiji software.^[ [81] ^]
In data set [3] the test system is Iba1‐positive microglial cells in hippocampi of C57BL/6J mice. The data set can be described thus: Immunohistochemistry of hippocampus after stereotaxic peptide injection, microglia (Iba1). In kind it is in vivo, mouse. Conditions: hippocampal injection of Aβ40 (100 µM) and APP‐C31 (200 µM), 1 µL; 10 days; n = 5. How it is done: 15 neurons were analyzed per each condition. […] Scale bar = 100 µm. […] Scale bar = 200 µm. f) Quantification results of the 6E10‐positive area and Iba1‐positive cells, calculated based on the fluorescence signals.
All experiments were performed in accordance with approved animal protocols and guidelines established by Korea Research Institute of Bioscience and Biotechnology (KRIBB). C57BL/6J (11 weeks old; 30 g) were anesthetized by the intraperitoneal injection of tribromoethanol (320 mg kg^−1, i.p.) and positioned in a stereotaxic apparatus. […] All infusions were given using a Hamilton syringe equipped with a 26‐gauge beveled needle and attached to a Nanojet stereotaxic syringe pump (Chemyx, Inc., TX, USA). Infusions were delivered at a rate of 0.2 µL min^−1. […]
Mice were perfused with phosphate‐buffered saline (GIBCO) and 4% paraformaldehyde (PFA) solution, and then the brains were post‐fixed with 4% PFA overnight and dehydrated with 30% sucrose solution. […] Immunofluorescence staining was performed as previously described^[ [83] ^] using anti‐Aβ antibody (6E10; 1:1,000), anti‐APP antibody (Y188; 1:500), anti‐Iba1 antibody (1:1,000, Wako Life Sciences Inc., Japan), an appropriate fluorescence‐conjugated secondary antibody, and Hoechst 33 258 (1:10,000; Life Technologies, CA, USA) for counterstaining. […]

Data set [4] has as its system SH‐SY5Y cells. Kind of data set: Annexin V staining (apoptosis) after microinjection. To be noted: 24 h; for Pearson's coefficient (r), annexin V / Texas Red‐labeled dextran: n = 3–5. Here is the method:
as §1
After 24 h incubation, the cells were washed with annexin‐binding buffer and stained with annexin V‐Alexa Fluor 488 for detecting apoptosis following the manufacturer's instruction (FITC Annexin V/Dead Cell Apoptosis Kit; V13241, Invitrogen). Fluorescent responses of annexin V and Texas Red‐labeled dextran were identified by a microscope with a GFP light cube [excitation at 470 (±22) nm and emission at 525 (±50) nm] and a Cy5 light cube [excitation at 628 (±40) nm and emission at 685 (±40) nm], respectively. At least five randomly selected fields per conditions were captured with a microscope. Pearson's correlation coefficient for the indication of co‐localization was calculated with the Coloc2 plugin in Fiji software.^[ [79] ^]

Data set [5] concerns Aβ in hippocampi of C57BL/6J mice. The data set can be described thus: Immunohistochemistry of hippocampus after stereotaxic peptide injection, Aβ (6E10, thioflavin‐S). It counts as in vivo, mouse. To be noted: hippocampal injection of Aβ40 (100 µM) and APP‐C31 (200 µM), 1 µL; 10 days; n = 3.
The mark [6] stands for this setting: APP‐C31 (10 µM) or Aβ40 (10 µM) alone.

No end group written: not given here.

T1 sequence (P05067 672-711): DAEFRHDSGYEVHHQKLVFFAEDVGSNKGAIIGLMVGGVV

With “AAVTPEERHLSKMQQNGYENPTYKFFEQMQN [APP‐C31]”, the cell viability in the data set with SH‐SY5Y cells [1] (10 µM) is on record as 86%; in the data set with SH‐SY5Y cells [1] (Cu(II)–Aβ40 (10 µM) with APP‐C31 (10 µM), 24 h, n = 3–5), 78%. In addition, at Aβ40, the Kd was 150 µM. Besides, in data set [2] (Aβ40 20 µM with stoichiometric or suprastoichiometric APP‐C31, 24 h), the averaged neurite length result was “further decreased”. Further, the neurite morphology result in data set [2] (Aβ40 20 µM with various concentrations of APP‐C31, 72 h) is listed as “fragmentation of neurites”. Also, the “number of Iba1‐positive microglial cells vs Aβ40 only” value in data set [3] was determined as 3.7 fold. Besides, the “green fluorescence of annexin V” value with SH‐SY5Y cells [4] (setting [6]) is recorded as “did not significantly show the green fluorescence of annexin V”; in the data set with SH‐SY5Y cells [4] (both APP‐C31 (10 µM) and Aβ40 (10 µM)), “intense green fluorescence of annexin V”. The “Pearson's coefficient (r), annexin V / Texas Red‐labeled dextran” value in the data set with SH‐SY5Y cells [4] (setting [6]) is recorded as “≈ 0.2”; in the data set on SH‐SY5Y cells [4] (both APP‐C31 (10 µM) and Aβ40 (10 µM), **p < 0.01), “≈ 0.6”. Besides, in data set [5], the “6E10‐positive area vs Aβ40 alone” value is “significantly enhanced”.

(Values after article PMC10811509 (Advanced Science, 2023).)
